Values joined by “and” are separate entries in the source; they are usually repeats but may differ in a detail not shown here. Equal values may be shown once. Toxic doses and inconclusive results are not listed. How the source made its calls: active means survival T/C of 150% or more; inactive means T/C below 125% in these data.
Tested on: P388 leukemia ip, CD2F1 mice, survival T/C
Experiment: NCI In Vivo Anticancer Drug Screen. Data for tumor model P388 Leukemia (intraperitoneal) in CD2F1 (CDF1) mice
Settings: endpoint: median survival time, higher = longer survival
How it was run: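 Mice carrying the transplanted tumor received test compound or vehicle. Survival was recorded in each group, and the value is the treated-group measurement divided by that of the vehicle-treated control group.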

[1] = dose: 60.0 mg/kg/injection, schedule: Q01DX005 (ip), vehicle: saline with Tween-80
[2] = dose: 240.0 mg/kg/injection, schedule: Q01DX005 (ip), vehicle: saline with Tween-80
[3] = dose: 60.0 mg/kg/injection, schedule: Q01DX005 (ip), vehicle: saline
[4] = dose: 120.0 mg/kg/injection, schedule: Q01DX005 (ip), vehicle: saline
[5] = dose: 240.0 mg/kg/injection, schedule: Q01DX005 (ip), vehicle: saline
[6] = dose: 200.0 mg/kg/injection, schedule: Q01DX009 (ip), vehicle: saline
[7] = dose: 12.5 mg/kg/injection, schedule: Q01DX009 (ip), vehicle: saline with Tween-80
[8] = dose: 50.0 mg/kg/injection, schedule: Q01DX009 (ip), vehicle: Klucel (hydroxypropylcellulose) (HPC)
[9] = dose: 100.0 mg/kg/injection, schedule: Q01DX009 (ip), vehicle: Klucel (hydroxypropylcellulose) (HPC)
[10] = dose: 100.0 mg/kg/injection, schedule: Q04DX002 (ip), vehicle: saline with Tween-80

Measured: T/C

O=C(c1ccc(Cl)cc1)N1CCN(C(=O)N2CCN(C(=O)N3CCN(C(=O)c4ccc(Cl)cc4)CC3)CC2)CC1
inactive: dose: 3.75 mg/kg/injection, schedule: Q01DX005 (ip), vehicle: saline with Tween-80 99 % of control | dose: 7.5 mg/kg/injection, schedule: Q01DX005 (ip), vehicle: saline with Tween-80 99 % of control | dose: 15.0 mg/kg/injection, schedule: Q01DX005 (ip), vehicle: saline with Tween-80 100 % of control | dose: 30.0 mg/kg/injection, schedule: Q01DX005 (ip), vehicle: saline with Tween-80 89 % of control | [1] 92 % of control | [2] 89 % of control

CC1(C)OCC(C2OC3OC(C)(C)OC3C2NN)O1 (centres undefined)
inactive: dose: 50.0 mg/kg/injection, schedule: Q01DX005 (ip), vehicle: saline with Tween-80 95 % of control | dose: 100.0 mg/kg/injection, schedule: Q01DX005 (ip), vehicle: saline with Tween-80 98 % of control | dose: 200.0 mg/kg/injection, schedule: Q01DX005 (ip), vehicle: saline with Tween-80 100 % of control

CCCCOc1ccc(Nc2c(C(=O)OCC)cnc3cc4c(cc23)OCO4)cc1
inactive: dose: 60.0 mg/kg/injection, schedule: Q01DX005 (ip), vehicle: Klucel (hydroxypropylcellulose) (HPC) 97 % of control | dose: 120.0 mg/kg/injection, schedule: Q01DX005 (ip), vehicle: Klucel (hydroxypropylcellulose) (HPC) 95 % of control | dose: 240.0 mg/kg/injection, schedule: Q01DX005 (ip), vehicle: Klucel (hydroxypropylcellulose) (HPC) 97 % of control

O=[N+]([O-])c1ccc(-c2c[s+]cs2)cc1
inactive: dose: 6.25 mg/kg/injection, schedule: Q01DX009 (ip), vehicle: distilled water + Tween-80 101 % of control | dose: 12.5 mg/kg/injection, schedule: Q01DX009 (ip), vehicle: distilled water + Tween-80 101 % of control | dose: 25.0 mg/kg/injection, schedule: Q01DX009 (ip), vehicle: distilled water + Tween-80 108 % of control | dose: 50.0 mg/kg/injection, schedule: Q01DX009 (ip), vehicle: distilled water + Tween-80 95 % of control | dose: 100.0 mg/kg/injection, schedule: Q01DX009 (ip), vehicle: distilled water + Tween-80 104 % of control

Nc1nc2c(nc(OCc3ccccc3)n2C2OC(CO)C(O)C2O)c(=O)n1N (centres undefined)
inactive: [1] 104 % of control | dose: 120.0 mg/kg/injection, schedule: Q01DX005 (ip), vehicle: saline with Tween-80 96 % of control | [2] 100 % of control

CO[C@@H]1[C@@H](O)c2ccccc2N1C(C)=O
inactive: [3] 104 % of control | [4] 102 % of control | [5] 104 % of control

O=S(=O)(O)SCCN1CCOCC1
inactive: dose: 100.0 mg/kg/injection, schedule: Q01DX009 (ip), vehicle: saline 90 % of control | [6] 115 % of control | dose: 400.0 mg/kg/injection, schedule: Q01DX009 (ip), vehicle: saline 110 % of control

COc1ccc(C2CC(=O)N(CN3CCN(c4ccc(Cl)cc4)CC3)C(=O)C2)cc1
inactive: dose: 6.25 mg/kg/injection, schedule: Q01DX009 (ip), vehicle: saline with Tween-80 94 % of control | [7] 94 % of control | dose: 25.0 mg/kg/injection, schedule: Q01DX009 (ip), vehicle: saline with Tween-80 91 % of control | dose: 200.0 mg/kg/injection, schedule: Q01DX009 (ip), vehicle: saline with Tween-80 92 % of control

C/C(=N\NC(=S)N1CCN(C2CCCCC2)CC1)c1ccccn1
inactive: dose: 1.56 mg/kg/injection, schedule: Q01DX005 (ip), vehicle: saline with Tween-80 103 % of control | dose: 3.13 mg/kg/injection, schedule: Q01DX005 (ip), vehicle: saline with Tween-80 106 % of control | dose: 6.25 mg/kg/injection, schedule: Q01DX005 (ip), vehicle: saline with Tween-80 101 % of control and 87 % of control

CC1(C)CC([P+](c2ccccc2)(c2ccccc2)c2ccccc2)=NN1
inactive: dose: 0.78 mg/kg/injection, schedule: Q01DX009 (ip), vehicle: saline with Tween-80 115 % of control and 119 % of control | dose: 12.5 mg/kg/injection, schedule: Q01DX001 (ip), vehicle: saline 123 % of control | [7] 100 % of control | dose: 25.0 mg/kg/injection, schedule: Q01DX001 (ip), vehicle: saline 122 % of control

c1ccc(P2CCc3[nH]c4ccccc4c3C2)cc1 (centres undefined)
inactive: dose: 50.0 mg/kg/injection, schedule: Q04DX003 (ip), vehicle: saline with Tween-80 101 % of control | dose: 100.0 mg/kg/injection, schedule: Q04DX003 (ip), vehicle: saline with Tween-80 105 % of control and 110 % of control | dose: 200.0 mg/kg/injection, schedule: Q04DX003 (ip), vehicle: saline with Tween-80 103 % of control and 120 % of control | dose: 400.0 mg/kg/injection, schedule: Q04DX003 (ip), vehicle: saline with Tween-80 114 % of control

O=C(NO)C(O)C(O)C(O)C(O)CO (centres undefined)
inactive: dose: 12.5 mg/kg/injection, schedule: Q01DX009 (ip), vehicle: saline 93 % of control | dose: 25.0 mg/kg/injection, schedule: Q01DX009 (ip), vehicle: saline 91 % of control | dose: 50.0 mg/kg/injection, schedule: Q01DX009 (ip), vehicle: saline 98 % of control and 97 % of control | [6] 86 % of control

Cc1c(N=Nc2ccccc2C(F)(F)F)c(-c2ccccc2)nn1C(=S)S
inactive: dose: 100.0 mg/kg/injection, schedule: Q01DX001 (ip), vehicle: saline with Tween-80 89 % of control | dose: 200.0 mg/kg/injection, schedule: Q01DX001 (ip), vehicle: saline with Tween-80 90 % of control | dose: 400.0 mg/kg/injection, schedule: Q01DX001 (ip), vehicle: saline with Tween-80 101 % of control

COc1cc2c(cc1OC)C13CCN4C(=O)C(=O)C(CC41)C1C(OCC(=O)O)CC(=O)N2C13 (centres undefined)
inactive: [3] 101 % of control | [4] 101 % of control | [5] 100 % of control

CCC1(c2ccccc2)CCC(C#N)C1=N (centres undefined)
inactive: dose: 100.0 mg/kg/injection, schedule: Q01DX001 (ip), vehicle: Klucel (hydroxypropylcellulose) (HPC) 102 % of control | dose: 200.0 mg/kg/injection, schedule: Q01DX001 (ip), vehicle: Klucel (hydroxypropylcellulose) (HPC) 100 % of control | dose: 400.0 mg/kg/injection, schedule: Q01DX001 (ip), vehicle: Klucel (hydroxypropylcellulose) (HPC) 98 % of control

CCOC(CNC(C)c1ccc2cc(OC)c(OC)cc2c1)OCC (centres undefined)
inactive: dose: 25.0 mg/kg/injection, schedule: Q01DX009 (ip), vehicle: Klucel (hydroxypropylcellulose) (HPC) 100 % of control | [8] 114 % of control | [9] 116 % of control | dose: 200.0 mg/kg/injection, schedule: Q01DX009 (ip), vehicle: Klucel (hydroxypropylcellulose) (HPC) 121 % of control

COC(=O)C1=C(C(=O)OC)C(=Nc2ccccc2)c2ccccc2C1=O
inactive: dose: 100.0 mg/kg/injection, schedule: Q04DX002 (ip), vehicle: Klucel (hydroxypropylcellulose) (HPC) 100 % of control | dose: 200.0 mg/kg/injection, schedule: Q04DX002 (ip), vehicle: Klucel (hydroxypropylcellulose) (HPC) 100 % of control | dose: 400.0 mg/kg/injection, schedule: Q04DX002 (ip), vehicle: Klucel (hydroxypropylcellulose) (HPC) 110 % of control

Nc1ccc([N+](=O)[O-])cc1Nc1c2ccccc2nc2ccccc12
inactive: [8] 108 % of control | [9] 107 % of control

Cc1cc2nc3ccccc3[nH]c2c2ccc(=O)cc12
inactive: [10] 99 % of control | dose: 200.0 mg/kg/injection, schedule: Q04DX002 (ip), vehicle: saline with Tween-80 98 % of control | dose: 400.0 mg/kg/injection, schedule: Q04DX002 (ip), vehicle: saline with Tween-80 94 % of control

CCOC(=O)CCCn1nc(-c2ccc(Cl)cc2)c(-c2ccc(Cl)cc2)c(C#N)c1=O
inactive: [10] 123 % of control

CN(C)CC(C(=O)/C=C/c1ccccc1)C(C)(C)C (centres undefined)
inactive: [3] 105 % of control | [4] 104 % of control
